Assay [1] deals with L 1210 cells. Kind of assay: Tumor inhibition in mice, subcutaneous L1210 cells. In kind it is in vivo. Conditions: DBA/2 mice, L1210 s.c.; 0.5 mg/kg; saline control 6.7 days. How it is done:
The ability of compounds of formula I to inhibit tumor growth in mice was tested as follows. 5×10^6 L 1210 cells were injected subcutaneously in the axillary region of DBA/2 mice (groups of 8 mice/treatment). Following intraperitoneal administration of saline solution only or saline solution containing a compound of formula I the length and width of the control tumor (receiving only saline) was measured at the indicated time and compared to those of animals receiving test compound to calculate the percentage of inhibition. Intraperitoneal administration of a saline solution containing the test compound, daily for 6 days, led to 60% tumor-free long term survivors (tumor weight zero). Median survival times for saline-treated control animals and animals receiving Compound 4 (0.5 mg/kg) were 6.7 and 15.6 days, respectively. Oral administration of the compound required a higher dosage of the inhibitor and led to a less-marked, but still significant reduction of the tumor weight and 25% long-term survivors as compared with the saline-treated control group.

Assay [2] relates to carcinoma W256. Nature of the assay: Walker-256 rat tumor model. In kind it is in vivo. How it is done:
Compounds of formula I were also active in vivo against the carcinoma W256 (TGI=28%), most likely due to the higher solubility and thus passive transport into the tumor compared with other anti-folate agents. Median survival times for saline-treated control animals and animals receiving Compound 4 (1 mg/kg) intraperitoneally in the Walker-256 rat tumor model were 22.5 and >46.3 days, respectively.

Assay [3] deals with dihydrofolate reductase (DHFR). Particulars: one representative experiment out of 5; 37° C., pH 7.0, 20 μM dihydrofolate, 100 μM NADPH.
Where [4] appears, read: 0.25 mg/kg - 3 doses every 4 days.
Setting [5] is: 0.5 mg/kg - 3 doses every 4 days.

Bounds are passed on as bounds.

With “N-[4-[[2,4-diamino-6-pteridinyl)methyl]amino]benzoyl]pseudoglutamic acid [Compound 4]”, the Median survival time in assay [1] is on record as 15.6 days; in assay [2] (Walker-256 rat tumor model, 1 mg/kg intraperitoneally, saline control 22.5 days), above 46.3 days. Further, the “No. animals surviving at day 30 days post-transplant” value was 10/10 in assay [2] (0.1 mg/kg - 5 doses every day), 8/10 in assay [2] (setting [4]), 9/10 in assay [2] (setting [5]) and 8/10 in assay [2] (1 mg/kg - one dose). In addition, the “Tumor volume (cm^3) ± SE” value in assay [2] (0.1 mg/kg - 5 doses every day) is given as 14.5 ± 3.8 cm^3; in assay [2] (setting [4]) it was 23 ± 3.5 cm^3; in assay [2] (setting [5]) it was 13.4 ± 3.07 cm^3; in assay [2] (1 mg/kg - one dose), 17.1 ± 3.3 cm^3. For the same substance, the “Relative IC50 (IC50(Compound)/IC50(MTX))” value in assay [3] came out at 0.75.

The values are drawn from patent US8518954B2, “Inhibitors of folic acid-dependent enzymes” (priority 2005, dated 2013).
